# Experimental data: US20060062842A1, “Method of administering a compound to multi-drug resistant cells” (Alza Corporation, priority 1998, published 2006)
# Experiments:
# M109R-HiFR cells [1] = test: Fluorescence tracking of doxorubicin in cells; format: cell-based, murine
# Experimental: As described in Example 5, folate-targeted liposomes containing doxorubicin were prepared and incubated with M109R-HiFR cells. For comparison, M109R-HiFR cells were also incubated with free doxorubicin or with liposomes containing doxorubicin but with no folate targeting ligand.
# In another study, the ability of the M109R-HiFR cells to retain doxorubicin after treatment for 1 hour with either free doxorubicin or with doxorubicin-loaded folate-targeted liposomes, followed by incubation in drug-free medium for 24 hours was examined.
# M109 HIFR cells were plated, 24 hours prior to each study, on 24 mm cover slips inserted into 35 mm culture dishes. […]
# Examination of the cells was done with inverted Zeiss confocal laser scanning microscope (LSM410) (Carl Zeiss, Jena, Germany). Maximum excitation was done by 543 nm line of the internal He-neon laser; fluorescence emission was observed above 570 nm with long-pass barrier filter LP-570) for rhodamine. For doxorubicin, maximum excitation was done by 488 nm line of internal Argon laser: fluorescence emission was observed above 515 nm with long pass barrier filter LP-515. […]
# M109R-HiFr cells were incubated with free doxorubicin or with doxorubicin entrapped in folate-targeted liposomes at a doxorubicin concentration of 4×10^−5 M. The doxorubicin molecule was tracked using fluorescence.
# [2] = system: drug-resistance (M109R) cells; test: Cell-associated doxorubicin after exposure; format: cell-based, murine; details: Drug-Resistant Cells, 0.2×10^-5 M doxorubicin
# Experimental: (§1) The doxorubicin was administered to the cells in free form and entrapped in folate-targeted liposomes. The cell-associated drug was measured after 1 hour and 4 hours of exposure to doxorubicin.
# [3] = system: drug-sensitive (M109) cells; test: Cell-associated doxorubicin after exposure; format: cell-based, murine; details: 0.5×10^-6 M doxorubicin
# Experimental: as §1
# M109R-HiFR cells [4] = test: In vivo adoptive tumor growth assay, footpad; design: species or system BALB/c mice
# Text: To examine the biological activity of drug delivered by the folate-pathway from folate-targeted liposomes in another model, M109R-HiFR cells in vitro were exposed to a test drug. These cells were inoculated into mice footpads. In this way, the growth of cells was tracked along a much longer time span than in in vitro experiments, and the influence of in vivo micro-environmental factors is brought into play. However, unlike therapeutic experiments, this type of in vivo adoptive assay is unaffected by pharmacokinetic and biodistribution factors which complicat the interpretation of results.
# Accordingly, tumor cells in vitro were incubated with free doxorubicin or with liposome-entrapped, non-folate-targeted doxorubicin (DOXIL®) or with folate-targeted, liposome-entrapped doxorubicin in accord with the invention. As described in Example 9, the tumor cells were incubated in the presence of the selected formulation for 1 hour and then 1×10^6 cells were injected into the footpad of a mouse, each treatment formulation being injected into 8 mice.
# At the end of the study on day 34 after injection of the treated tumor cells, the weight of each tumor-bearing mouse footpad was determined and […] to determine the tumor weight in each mouse footpad.
# Female 10-week-old BALB/c mice were maintained in a specific pathogen-free facility. M109R-HiFR cells in in vitro suspension (10^7 cells/ml) were exposed to 10^−5M doxorubicin either as free drug, as liposome-entrapped (Doxil®), or as folate-targeted liposome-entrapped […], washed with PBS, and then resuspended at a concentration of 2×10^7 cells. Healthy, syngeneic BALB/c mice were injected into the right hind footpad with 50 μl (10^6 cells). The footpad thickness was measured with calipers once or twice a week for 5 weeks. After 35 days, mice were sacrificed, the final number of tumors recorded, and the control and tumor-inoculated footpads were sectioned at the ankle level and weighed. Tumor weight was estimated as the difference between the weight of the normal and tumor-bearing footpad. The statistical significance of differences in the final incidence of tumors per group was analyzed by contingency tables and the Fisher's exact test.
# tumor cells = test: Adoptive tumor growth assay, subcutaneous injection; format: in vivo, mice; details: treated tumor cells injected subcutaneously (FIG. 16)
# Text: FIG. 16 is a plot showing the number of palpable tumors after subcutaneous injection of untreated (control, open circles) or in vitro treated tumor cells with free doxorubicin (closed circles), doxorubicin entrapped in non-targeted liposomes (open squares) and doxorubicin entrapped in folate-targeted liposomes (closed triangles).
# M109R cells = test: Multidrug-resistance of M109R subline; format: cell-based, murine
# Text: (i) Cell lines: M109, a murine lung carcinoma line of BALB/c mice (Marks, T. A. et al., Cancer Treat. Rep., 61:1459-1470 ([…])), and a subline of these cells, M109R displaying multidrug-resistance, (approximately 100 fold increased resistance to doxorubicin) were used in most of the studies. Both cell lines express in vitro low amounts of folic acid receptors and are therefore referred to as M109-LoFR and M109R-LoFR. By culturing these cells in folic acid-free medium for several passages, two sublines expressing a high amount of folic acid receptors were obtained. These sublines were adapted to grow under low folic acid conditions with generation doubling times similar to the lines of origin.
# M109R-HiFR cells [5] = test: Verapamil blockade of efflux pump and doxorubicin delivery; details: for Intracellular Doxorubicin Content: 0.5×10^-5 M doxorubicin, verapamil 10 μmol where named
# M109-LoFR cells = test: Folic acid binding to cell lines; design: species or system murine; details: incubation 30 min at 37° C.
# Experimental: (§2) These cell lines and their capacity to bind folic acid were determine as set forth in Example 2B, by incubating the cells for 30 minutes with folic acid at 37° C.
# (§3) Radioactivity was determined by liquid scintillation counting.
# M109R-LoFR cells = test: Folic acid binding to cell lines; design: species or system murine; details: incubation 30 min at 37° C.
# Experimental: as §2, §3
# Human Melanoma line A375 = test: Folic acid binding to cell lines; details: 30 min at 37° C.
# Experimental: as §2, §3
# [6] = system: Murine Lung Carcinoma High Folate Receptor cells; test: Folic acid binding to cell lines; details: Murine Lung Carcinoma High Folate Receptor (printed M109R-HiFR); 30 min at 37° C.
# Experimental: as §2, §3
# Normal Human Fibroblasts = test: Folic acid binding to cell lines; details: NHF; 30 min at 37° C.
# Experimental: as §2, §3
# KB-HiFR cells = test: Folic acid binding to cell lines; design: species or system human
# Experimental: as §2, §3
# KB-LoFR cells = test: Folic acid binding to cell lines; design: species or system human
# Experimental: as §2, §3
# M109R-HiFR cells [7] = test: Folic acid binding to cell lines
# [8] = cells exposed in vitro to 10^-5 M doxorubicin, 5 weeks follow-up
smiles,measurement,setting,value
"COc1cccc2c1C(=O)c1c(O)c3c(c(O)c1C2=O)C[C@@](O)(C(=O)CO)C[C@@H]3O[C@H]1C[C@H](N)[C@H](O)[C@H](C)O1 [Free Doxorubicin, doxorubicin]",doxorubicin fluorescence retained in cells,"M109R-HiFR cells [1]; 1 hour treatment, then 24 hours in drug-free medium (FIGS. 10C-10D)",almost completely waned
same,time at which drug is located in the nucleus,"M109R-HiFR cells [1]; doxorubicin 4×10^-5 M (FIGS. 9B, 9E)",≤ 30 min
same,Percent doxorubicin administered remaining in cells,[2]; exposure 1 hour,5.5%
same,intracellular doxorubicin,[2]; exposure 1 hour,159 ng/1.5 × 10^6 cells
same,Percent doxorubicin administered remaining in cells,[2]; exposure 4 hours,4.2%
same,intracellular doxorubicin,[2]; exposure 4 hours,122 ng/1.5 × 10^6 cells
same,Percent doxorubicin administered remaining in cells,[3]; exposure 1 hour,8.6%
same,intracellular doxorubicin,[3]; exposure 1 hour,25 ng/1.5 × 10^6 cells
same,Percent doxorubicin administered remaining in cells,[3]; exposure 4 hours,12.4%
same,intracellular doxorubicin,[3]; exposure 4 hours,36.1 ng/1.5 × 10^6 cells
same,Final Tumor Incidence (%),M109R-HiFR cells [4]; [8],42%
same,Final Tumor Incidence (tumors/mice),M109R-HiFR cells [4]; [8],8/19
same,Median Tumor weight (range),M109R-HiFR cells [4]; footpad tumor weight at end of study,239 (32-683) mg
same,footpad thickness,"M109R-HiFR cells [4]; tumor cells treated in vitro, 10^6 cells injected into footpad (FIG. 15A)",increase in footpad thickness
same,number of palpable tumors,tumor cells,significant number of tumors
same,increased resistance of M109R versus M109,M109R cells,approximately 100 fold
same,cell fluorescence by flow cytometry in presence of verapamil,M109R-HiFR cells [5]; FIGS. 11A-11B,clear increase of cell fluorescence
same,Intracellular Doxorubicin Content,M109R-HiFR cells [5]; exposure time 30 minutes,24 ng/1.5 × 10^6 cells
same,Intracellular Doxorubicin Content,M109R-HiFR cells [5]; exposure time 60 minutes,42.5 ng/1.5 × 10^6 cells
same,cell retention of doxorubicin in presence versus absence of verapamil,M109R-HiFR cells [5]; verapamil 10 μmol,~4.5 fold
Nc1nc2ncc(CNc3ccc(C(=O)N[C@@H](CCC(=O)O)C(=O)O)cc3)nc2c(=O)[nH]1 [folic acid],FOLIC ACID BINDING,M109-LoFR cells; M109-LoFR after culture in folic acid-depleted medium for 24 h,25 ± 13 FENTOMOLES/10^4 CELLS
same,FOLIC ACID BINDING,M109-LoFR cells; M109-LoFR,20 ± 6 FENTOMOLES/10^4 CELLS
same,FOLIC ACID BINDING,M109R-LoFR cells,27 ± 10 FENTOMOLES/10^4 CELLS
same,FOLIC ACID BINDING,Human Melanoma line A375,168 ± 33 FENTOMOLES/10^4 CELLS
same,FOLIC ACID BINDING,[6],678 ± 255 FENTOMOLES/10^4 CELLS
same,FOLIC ACID BINDING,Normal Human Fibroblasts,45 ± 3 FENTOMOLES/10^4 CELLS
same,difference in folic acid binding capacity,KB-HiFR cells; KB-HiFR (highest) compared with M109-LoFR (lowest),up to 485 fold
same,FOLIC ACID BINDING,"KB-HiFR cells; KB-HiFR, 30 min at 37° C.",9730 ± 79 FENTOMOLES/10^4 CELLS
same,increase in folic acid binding,KB-LoFR cells; KB-LoFR after 24 hours in folic acid-depleted medium,15 fold
same,FOLIC ACID BINDING,"KB-LoFR cells; KB-LoFR after culture in folic acid-depleted medium for 24 h, 30 min at 37° C.",6725 ± 323 FENTOMOLES/10^4 CELLS
same,FOLIC ACID BINDING,"M109R-HiFR cells [7]; Multidrug-resistant High Folate Receptor M109R-HiFR, 30 min at 37° C.",2179 ± 430 FENTOMOLES/10^4 CELLS
same,folic acid remaining bound following acid wash,"M109R-HiFR cells [7]; acid wash pH 3, binding at ~1° C. for 30 min",2±1%
same,loss of folic acid receptors shown by binding assay with folic acid,M109R-HiFR cells [7]; monolayers pretreated with PI-PLC,99%
same,cell-bound radiolabeled folic acid recovered after trypsinization,M109R-HiFR cells [7]; trypsin treatment,91±11%
